Assay results: patent US20260317319A1, “NOVEL ERGOLINES AND METHODS OF TREATING MOOD DISORDERS” (Gilgamesh Pharma Inc., priority 2023, published 2026)
“And” between values parts separate entries of the source, which are not always exact repeats. Equal entries are not always repeated. Where two headings read alike, the source gives them in different places.

What was measured:
[1] = target: T1, 5-HT1A receptor (Homo sapiens, UniProt P08908); test: cell-based; conditions: agonist, Ca2+ flux; for EC50: CHO cells with Gα15; for Emax: CHO, read-out: 5-HT1A % Act @ Max Dose
T1 construct: expressed in transfected cells; host or cells: CHO cells, stably transfected
T1 sequence (P08908 1-422): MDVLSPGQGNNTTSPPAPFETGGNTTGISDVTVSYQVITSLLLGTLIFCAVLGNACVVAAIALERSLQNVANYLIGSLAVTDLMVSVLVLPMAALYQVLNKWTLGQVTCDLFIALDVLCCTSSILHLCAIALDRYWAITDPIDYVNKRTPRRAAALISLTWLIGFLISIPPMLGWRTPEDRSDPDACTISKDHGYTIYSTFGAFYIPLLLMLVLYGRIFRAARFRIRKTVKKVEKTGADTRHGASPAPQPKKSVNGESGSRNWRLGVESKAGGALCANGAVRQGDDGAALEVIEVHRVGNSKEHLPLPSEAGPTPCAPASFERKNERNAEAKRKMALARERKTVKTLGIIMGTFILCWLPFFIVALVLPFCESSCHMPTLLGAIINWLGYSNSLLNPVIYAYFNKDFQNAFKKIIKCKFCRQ
Experimental: (§1) Functional Assays at 5-HT2A, 5-HT2B, and 5-HT1A. Agonist activity at 5-HT2A, 5-HT2B, 5HT2C and 5-HT1A receptors was determined using a FLIPR Ca^2+ flux assay at WuXi AppTec (Hong Kong) Limited according to their standard protocols. Briefly, stably transfected cells expressing the receptor of interest and Gα15 in the case of 5-HT1A (HEK293 for 5-HT2A and 5-HT2B; CHO cells for 5-HT1A) were grown and plated in a 384 well plate and incubated at 37° C. and 5% CO2 overnight. A solution of 250 mM probenecid in 1 mL FLIPR assay buffer was prepared fresh. This was combined with a fluorescent dye (Fluo-4 Direct™) to make a final assay concentration of 2.5 mM. […] The fluorescent dye was then added to the assay plate along with assay buffer to a final volume of 40 μL. The cell plate was incubated for 50 min at 37° C. and 5% CO2 and placed into the FLIPR Tetra along with the compound plate. 10 μL of references and compounds were then transferred from the compound plate into the cell plate and the fluorescent signal was read.

[2] = target: T2, 5-HT2A receptor (Homo sapiens, UniProt P28223); test: cell-based; assay type: cell-based; design: expressed in transfected cells; host or cells: HEK293, stably transfected; conditions: Ca2+ flux; for EC50: HEK293; for Emax: HEK293, agonist, read-out: 5-HT2A % Act @ Max Dose
Experimental: as §1

[3] = target: T3, 5-HT2B receptor (Homo sapiens, UniProt P41595); test: cell-based; assay type: cell-based; conditions: Ca2+ flux; for EC50: agonist, HEK293; for Emax: HEK293, agonist, HEK293, max dose, read-out: 5-HT2B % Act @ Max Dose
T3 construct: expressed in transfected cells; host or cells: HEK293, stably transfected
Experimental: as §1

[4] = target: T2, 5-HT2A receptor; test: biochemical; assay type: binding; design: expressed in transfected cells; host or cells: HEK293, stably transfected; conditions: [3H]ketanserin 1 nM; HEK293 stable cell line; 1 h, 25 °C
Experimental: Affinity of the test compounds for the 5-HT2A receptor was determined in radioligand binding experiments with [^3H]ketanserin by WuXi AppTec (Hong Kong) Limited, using methods adapted from the literature and under conditions described in Table 1.

[5] = in vitro; assay type: in vitro ADME, rat; conditions: rat, microsomes, RLM (male Sprague-Dawley) 0.50 mg/mL, NADPH 1 mM, 1 μM compound, pH 7.4, 37° C., 60 min; for microsomal CLint: read-out: Intrinsic clearance (Clint); for half-life: read-out: half-life (t1/2)
Text: RLM Stability Pooled RLM from male Sprague-Dawley rats (Xenotech R1000) were used.

[6] = in vitro; assay type: in vitro ADME, human; conditions: human, microsomes, HLM 0.50 mg/mL, NADPH 1 mM, 1 μM compound, pH 7.4, 37° C., 60 min; for microsomal CLint: read-out: Intrinsic clearance (Clint); for half-life: read-out: half-life (t1/2)
[7] = in vitro; assay type: in vitro ADME, mouse; conditions: mouse, microsomes, MLM (male CD-1) 0.50 mg/mL, NADPH 1 mM, 1 μM compound, pH 7.4, 37° C., 60 min; for microsomal CLint: read-out: Intrinsic clearance (Clint); for half-life: read-out: half-life (t1/2)
Text: MLM Stability Pooled MLM from male CD-1 mice (BIOIVT M00501) were used.

T2 sequence (P28223 whole entry): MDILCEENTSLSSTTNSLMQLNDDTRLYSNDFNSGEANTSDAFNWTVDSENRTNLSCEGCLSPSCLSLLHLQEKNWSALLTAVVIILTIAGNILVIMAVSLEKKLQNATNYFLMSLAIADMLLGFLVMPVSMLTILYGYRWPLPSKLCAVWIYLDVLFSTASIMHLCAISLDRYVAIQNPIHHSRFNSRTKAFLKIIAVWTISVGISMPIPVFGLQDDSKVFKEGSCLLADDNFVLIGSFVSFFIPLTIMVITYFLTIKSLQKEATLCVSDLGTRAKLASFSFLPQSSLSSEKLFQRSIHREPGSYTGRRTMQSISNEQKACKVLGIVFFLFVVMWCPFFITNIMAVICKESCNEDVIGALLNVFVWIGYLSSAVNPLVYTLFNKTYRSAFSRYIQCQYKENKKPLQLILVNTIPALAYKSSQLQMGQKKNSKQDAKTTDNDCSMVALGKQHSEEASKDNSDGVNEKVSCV
T3 sequence (P41595 whole entry): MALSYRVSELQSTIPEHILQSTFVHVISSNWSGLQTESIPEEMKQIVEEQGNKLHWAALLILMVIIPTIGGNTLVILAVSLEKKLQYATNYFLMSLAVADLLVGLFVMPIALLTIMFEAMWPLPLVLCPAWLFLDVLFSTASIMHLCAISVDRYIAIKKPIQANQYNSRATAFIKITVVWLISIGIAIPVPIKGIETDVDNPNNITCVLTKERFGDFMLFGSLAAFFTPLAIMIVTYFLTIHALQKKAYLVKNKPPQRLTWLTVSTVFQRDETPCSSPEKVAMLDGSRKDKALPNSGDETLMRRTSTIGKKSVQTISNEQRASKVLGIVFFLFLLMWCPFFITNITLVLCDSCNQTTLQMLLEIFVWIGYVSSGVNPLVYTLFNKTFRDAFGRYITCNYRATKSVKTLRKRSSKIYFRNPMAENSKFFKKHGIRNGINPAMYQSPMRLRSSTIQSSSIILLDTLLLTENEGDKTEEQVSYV

SMILES	EC50 [1] [nM]	EC50 ([2]; agonist)	EC50 [3] [nM]	Ki [4] [nM]	microsomal CLint [5] [µL/min/mg]	half-life [5] [min]	Emax ([1]; CHO cells with Gα15, max dose) [%]	Emax ([2]; HEK293, max dose) [%]	microsomal CLint [6] [µL/min/mg]	half-life [6] [min]	Emax [3] [%]	microsomal CLint [7] [µL/min/mg]	half-life [7] [min]	5-HT1A % Act @ Max Dose ([1]; CHO cells with Gα15, max dose)	5-HT2A % Act @ Max Dose ([2]; agonist, HEK293, max dose)
CCN(CC)C(=O)[C@@H]1C=C2c3cccc4[nH]cc(c34)C[C@H]2N(Cc2cccs2)C1 [Compound 104]	730	844 nM	731	1.42											
CCN(CC)C(=O)[C@@H]1C=C2c3cccc4[nH]cc(c34)C[C@H]2N(Cc2ccc3ccccc3c2)C1 [Compound 100, (6aR,9R)—N,N-diethyl-7-(naphthalen-2-ylmethyl)-4,6,6a,7,8,9-hexahydroindolo[4,3-fg]quinoline-9-carboxamide]	20800	1080 nM	> 10000	3.84	167	8.3	68.4	74.6	43.9	31.6	18.4	117	11.8		
COc1cccc(CN2C[C@H](C(=O)N3[C@@H](C)C[C@@H]3C)C=C3c4cccc5[nH]cc(c45)C[C@H]32)c1 [Compound 94, ((2S,4S)-2,4-dimethylazetidin-1-yl)((6aR,9R)-7-(3-methoxybenzyl)-4,6,6a,7,8,9-hexahydroindolo[4,3-fg]quinolin-9-yl)methanone]	> 100000	792 nM	> 10000	13.7	352	3.9	64.8	30.4	116	11.9	-1.21	1340	1		
CC[C@@H](C)NC(=O)[C@@H]1C=C2c3cccc4[nH]cc(c34)C[C@H]2N(Cc2cccc(OC)c2)C1 [Compound 95, (6aR,9R)—N—((R)-sec-butyl)-7-(3-methoxybenzyl)-4,6,6a,7,8,9-hexahydroindolo[4,3-fg]quinoline-9-carboxamide]	42900	642 nM	> 10000	15.3	1600	0.9	63.2	63.8	685	2	0.13	2020	0.7		
CCN(CC)C(=O)[C@@H]1C=C2c3cccc4[nH]cc(c34)C[C@H]2N(Cc2ncco2)C1 [Compound 74, (6aR,9R)—N,N-diethyl-7-(oxazol-2-ylmethyl)-4,6,6a,7,8,9-hexahydroindolo[4,3-fg]quinoline-9-carboxamide]		289 nM and 54.3 nM		52.5	71.7	19.3			45.5	30.5		83.3	16.6	51.28% and 82.73%	63% and 89.01%
CCCN(CC)C(=O)[C@@H]1C=C2c3cccc4[nH]cc(c34)C[C@H]2N(Cc2cccc(OC)c2)C1 [Compound 93, (6aR,9R)—N-ethyl-7-(3-methoxybenzyl)-N-propyl-4,6,6a,7,8,9-hexahydroindolo[4,3-fg]quinoline-9-carboxamide]	> 100000	1200 nM	> 10000	4.73	423	3.3	21.1	44.6	152	9.1	1.24	600	2.3		
CCN(CC)C(=O)[C@H]1C=C2c3cccc4[nH]cc(c34)C[C@H]2N(Cc2ccc(C)cc2)C1 [Compound 97a, (6aR,9S)—N,N-diethyl-7-(4-methylbenzyl)-4,6,6a,7,8,9-hexahydroindolo[4,3-fg]quinoline-9-carboxamide]		> 1260 nM		> 1230											
CCN(CC)C(=O)[C@H]1C=C2c3cccc4[nH]cc(c34)C[C@H]2N(CC2CCCC2)C1 [Compound 90a, (6aR,9S)-7-(cyclopentylmethyl)-N,N-diethyl-4,6,6a,7,8,9-hexahydroindolo[4,3-fg]quinoline-9-carboxamide]	> 100000	> 1000 nM	> 10000	55.6	288	4.8	135	25.7	158	8.8	21.9	712	1.9		
CCN(CC)C(=O)[C@@H]1C=C2c3cccc4[nH]cc(c34)C[C@H]2N(Cc2cccc3ccccc23)C1 [Compound 101, (6aR,9R)—N,N-diethyl-7-(naphthalen-1-ylmethyl)-4,6,6a,7,8,9-hexahydroindolo[4,3-fg]quinoline-9-carboxamide]	71100	271 nM	> 10000	24.5	525	2.6	61.8	86.5	84.6	16.4	11.7	483	2.9		
CCCN(CC)C(=O)[C@@H]1C=C2c3cccc4[nH]cc(c34)C[C@H]2N(Cc2ccccc2)C1 [Compound 86, (6aR,9R)-7-benzyl-N-ethyl-N-propyl-4,6,6a,7,8,9-hexahydroindolo[4,3-fg]quinoline-9-carboxamide]	15500	933 nM	1280	1.6	117	11.9	49.1	67	128	10.9	7.82	380	3.6		
O=C([C@@H]1C=C2c3cccc4[nH]cc(c34)C[C@H]2N(Cc2ccccc2)C1)N1CCCC1 [Compound 84, ((6aR,9R)-7-benzyl-4,6,6a,7,8,9-hexahydroindolo[4,3-fg]quinolin-9-yl)(pyrrolidin-1-yl)methanone]	1690	895 nM	> 10000	17.8	101	13.7	40.3	68.9	89.7	15.5	5.16	146	9.5		
CCN(CC)C(=O)[C@H]1C=C2c3cccc4[nH]cc(c34)C[C@H]2N(CC2CCCCC2)C1 [Compound 89a, (6aR,9S)-7-(cyclohexylmethyl)-N,N-diethyl-4,6,6a,7,8,9-hexahydroindolo[4,3-fg]quinoline-9-carboxamide]		> 1000 nM		208	304	4.6		3.92	91.5	15.2		743	1.9		
